How the values were obtained:
HCT116 = assay: Proliferation assay HCT116; format: cell-based; details: Homo sapiens, HCT-116, 96 h; HCT116, colon/rectum carcinoma; 4 days, crystal violet
Protocol: (§1) Cultivated human tumor cells (originally obtained from ATCC, HeLa-MaTu and HeLa-MaTu-ADR, originally obtained from Epo GmbH, Berlin, Germany) were plated at a density of 1000 to 5000 cells/measuring point, depending on the growth rate of the cell line, in a 96-well multititer plate in 200 μl of growth medium (DMEM/HAMS F12, 2 mM L-glutamine, 10% fetal calf serum). After 24 hours the cells of one plate (zero-point plate) were stained with crystal violet (see below), whereas the medium of the other plates was replaced with fresh culture medium (200 μl), to which the test substances had been added at various concentrations (0 μM, and in the range 0.01-30 μM; the final concentration of the solvent dimethyl sulfoxide was 0.5%). The cells were incubated for 4 days in the presence of the test substances. Cellular proliferation was determined by staining the cells with crystal violet: the cells were fixed by adding 20 μl/measuring point of an 11% glutaraldehyde solution for 15 min at room temperature. After washing the fixed cells with water three times, the plates were dried at room temperature. The cells were stained by adding 100 μl/measuring point of a 0.1% crystal violet solution (pH adjusted to pH3 by adding acetic acid). After washing the stained cells with water three times, the plates were dried at room temperature. The dye was dissolved by adding 100 μl/measuring point of a 10% acetic acid solution. The extinction was determined photometrically at a wavelength of 595 nm. The percentage change in cell growth was calculated by standardization of the measured values to the extinction values of the zero-point plate (=0%) and the extinction of the untreated (0 μM) cells (=100%). The measured data were standardized to 0% inhibition (cell proliferation without inhibitor) and 100% inhibition (zero-point plate). The IC50 values were determined by means of a 4-parameter fit using the company's own software.
(§2) The substances were examined in the following cell lines which, in an exemplary manner, represent the stated indications: […]

MDA-MB 453 = assay: Proliferation assay MDA-MB 453; format: cell-based; details: Homo sapiens, 96 h; MDA-MB 453, estrogen receptor-negative mamma carcinoma; 4 days, crystal violet
Protocol: as §1, §2

A549 = assay: Proliferation assay A549; format: cell-based; details: Homo sapiens, 96 h; A549, non-small-cell bronchial carcinoma; 4 days, crystal violet
Protocol: as §1, §2

Caco-2 = assay: Proliferation assay Caco-2; format: cell-based, human; details: Caco-2, colon/rectum carcinoma, 4 days, crystal violet
Summary of the method: (§3)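 Crystal violet absorbance (595 nm) after 4-day compound exposure; cells in DMEM/HAMS F12, 10% FCS, 2 mM glutamine, 1000–5000 cells/well. Dose range 0.01–30 μM, 0.5% DMSO final. Normalised to untreated (0% inhibition) and day-0 plate (100%); IC50 via 4-parameter fit.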

CDK2/CycE = target: T1, CDK2/CycE (Homo sapiens, UniProt P24941); assay: CDK2/CycE kinase assay (Assay 2); format: biochemical; details: 0.5 μM ATP, histon IIIS, 10 min 22° C.; read-out: CDK2/CycE (Assay 2) Concentration for half-maximal inhibition of the enzyme activity, IC50
T1 construct: purchased ProQinase GmbH, Freiburg, Germany; host or cells: baculovirus-infected insect cells (Sf9)
Protocol: Recombinant CDK2 and CycE-GST fusion proteins, purified from baculovirus-infected insect cells (Sf9), were purchased from ProQinase GmbH, Freiburg, Germany. Histon HIS, used as kinase substrate, was purchased from Sigma.
The reaction was stopped by adding EDTA solution (250 mM, pH 8.0, 15 μl/measuring point).
From each reaction mixture, 15 μl was applied to P30 filter strips (from Wallac), and unincorporated ^33P-ATP was removed by washing the filter strips three times, for 10 min each time, in 0.5% phosphoric acid. After drying the filter strips for 1 hour at 70° C., the filter strips were covered with scintillator strips (MeltiLex™ A, from Wallac) and stoved for 1 hour at 90° C. The amount of incorporated ^33P (substrate phosphorylation) was determined by scintillation measurement in a gamma-radiation measuring instrument (Wallac). […] The IC50 values were determined by means of a 4-parameter fit using the company's own software.

HT29 = assay: Proliferation assay HT29; format: cell-based; details: Homo sapiens, HT-29, 96 h; HT29, colon/rectum carcinoma; 4 days, crystal violet
Protocol: as §1, §2

DU145 = assay: Proliferation assay DU145; format: cell-based, human; details: DU145, prostate carcinoma, 4 days, crystal violet
Summary of the method: as §3

H1975 = assay: Proliferation assay H1975; format: cell-based; details: Homo sapiens, NCI-H1975, 96 h; H1975, non-small-cell bronchial carcinoma; 4 days, crystal violet
Protocol: as §1, §2

A431 = assay: Proliferation assay A431; format: cell-based; details: Homo sapiens, A-431, 96 h; A431, skin: epidermis; 4 days, crystal violet
Protocol: as §1, §2

NCI-ADR-Res = assay: Proliferation assay NCI-ADR-Res; format: cell-based; details: Homo sapiens, 96 h, ovarial carcinoma, 4 days, crystal violet
Protocol: as §1, §2

SK-BR-3 = assay: Proliferation assay SK-BR-3; format: cell-based; details: Homo sapiens, 96 h; SK-BR-3, estrogen receptor-negative mamma carcinoma; 4 days, crystal violet
Protocol: as §1, §2

CDK1/CycB = target: T2, CDK1/CycB (Homo sapiens, UniProt P06493); assay: CDK1/CycB kinase assay (Assay 1); format: biochemical; details: 0.5 μM ATP, histon IIIS, 10 min 22° C.; read-out: CDK1/CycB (Assay 1) Concentration for half-maximal inhibition of the enzyme activity, IC50
T2 construct: purchased ProQinase GmbH, Freiburg, Germany; host or cells: baculovirus-infected insect cells (Sf9)
T2 sequence (P06493 whole entry): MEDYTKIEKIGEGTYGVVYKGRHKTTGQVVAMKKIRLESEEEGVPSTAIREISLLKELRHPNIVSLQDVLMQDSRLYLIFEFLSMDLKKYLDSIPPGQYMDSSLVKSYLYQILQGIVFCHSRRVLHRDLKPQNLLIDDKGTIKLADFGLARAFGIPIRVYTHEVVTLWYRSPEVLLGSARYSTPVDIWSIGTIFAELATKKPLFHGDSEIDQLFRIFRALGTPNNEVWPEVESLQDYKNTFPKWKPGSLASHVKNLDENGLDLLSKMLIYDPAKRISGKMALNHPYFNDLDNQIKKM
T2 sequence (P14635 whole entry partner): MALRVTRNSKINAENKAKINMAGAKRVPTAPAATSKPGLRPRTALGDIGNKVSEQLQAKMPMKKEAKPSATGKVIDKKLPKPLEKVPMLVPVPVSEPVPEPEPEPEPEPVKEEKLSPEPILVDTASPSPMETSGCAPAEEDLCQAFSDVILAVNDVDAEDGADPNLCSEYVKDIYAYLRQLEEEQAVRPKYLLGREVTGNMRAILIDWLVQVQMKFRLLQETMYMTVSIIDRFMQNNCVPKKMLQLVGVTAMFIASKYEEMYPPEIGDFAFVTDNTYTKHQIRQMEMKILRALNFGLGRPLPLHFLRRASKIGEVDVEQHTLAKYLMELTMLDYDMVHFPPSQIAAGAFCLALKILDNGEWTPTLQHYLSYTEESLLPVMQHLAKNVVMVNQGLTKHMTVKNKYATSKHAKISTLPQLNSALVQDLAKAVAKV
Protocol: Recombinant CDK1 and CycB-GST fusion proteins, purified from baculovirus-infected insect cells (Sf9), were purchased from ProQinase GmbH, Freiburg, Germany. The histon HIS used as kinase substrate is commercially available from Sigma.
CDK1/CycB (200 ng/measuring point) was incubated for 10 min at 22° C. in the presence of various concentrations of test substances (0 μM, and within the range 0.01-100 μM) in assay buffer [50 mM Tris/HCl pH8.0, 10 mM MgCl2, 0.1 mM Na ortho-vanadate, 1.0 mM dithiothreitol, 0.5 μM adenosine triphosphate (ATP), 10 μg/measuring point histon IIIS, 0.2 μCi/measuring point ^33P-gamma ATP, 0.05% NP40, 1.25% dimethyl sulfoxide]. The reaction was stopped by adding EDTA solution (250 mM, pH 8.0, 15 μl/measuring point).
From each reaction mixture, 15 μl were applied to P30 filter strips (from Wallac), and unincorporated ^33P-ATP was removed by washing the filter strips three times, for 10 min each time, in 0.5% phosphoric acid. After drying the filter strips for 1 hour at 70° C., the filter strips were covered with scintillator strips (MeltiLex™ A, from Wallac) and stoved for 1 hour at 90° C. The amount of incorporated ^33P (substrate phosphorylation) was determined by scintillation measurement in a gamma-radiation measuring instrument (Wallac). The measured data were standardized to 0% inhibition (enzyme reaction without inhibitor) and 100% inhibition (all assay components except enzyme). The IC50 values were determined by means of a 4-parameter fit using the company's own software.

IC50 (HCT116) | IC50 (MDA-MB 453) | IC50 (A549) | IC50 (Caco-2; Homo sapiens, Caco-2, 96 h) | IC50 (CDK2/CycE) | IC50 (HT29) | IC50 (DU145; Homo sapiens, DU-145, 96 h) | IC50 (H1975) | IC50 (A431) | IC50 (SK-BR-3) | IC50 (CDK1/CycB) | IC50 (Caco-2) | IC50 (DU145) | Structure (SMILES) | IC50 (NCI-ADR-Res)
20 nM | 11 nM | < 10 nM | 35 nM | 6 nM | 12 nM | 31 nM | 16 nM | 20 nM | 33 nM | 6 nM | – | – | C[C@@H](O)[C@@H](C)Nc1nc(Nc2ccc(S(=N)(=O)C3CC3)cc2)ncc1C(F)(F)F (mixture of isomers) [Example 4-SI-1, (RS)—S-Cyclopropyl-S-(4-{[4-{[(1R,2R)-2-hydroxy-1-methylpropyl]amino}-5-(trifluoromethyl)-pyrimidin-2-yl]amino}phenyl)sulfoximide] | 37 nM
16 nM | 16 nM | 23 nM | – | 5 nM | 28 nM | – | 14 nM | 17 nM | 21 nM | 4 nM | – | – | C[C@@H](O)[C@@H](C)Oc1nc(Nc2ccc(S(C)(=N)=O)cc2)ncc1C(F)(F)F (single isomer, unassigned) [Example 2-SI-2] | 29 nM
– | – | – | – | – | – | – | – | – | – | – | 24 nM | 9 nM | C[C@@H](O)[C@@H](C)Oc1nc(Nc2ccc(S(C)(=N)=O)cc2)ncc1C(F)(F)F (mixture of isomers) [Example 2-SI-2, (RS)—S-(4-{[4-{[(1R,2R)-2-Hydroxy-1-methylpropyl]oxy}-5-(trifluoromethyl)pyrimidin-2-yl]-amino}phenyl)-S-methylsulfoximide] | –

— patent US20130210846A1, “USE OF NOVEL PAN-CDK INHIBITORS FOR TREATING TUMORS” (BAYER INTELLECTUAL PROPERTY GMBH, priority 2010, published 2013)
